Experimental data: US7728003B2, “5-oxo-5,8-dihydro-pyrido-pyrimidines as inhibitors of c-fms kinase” (Janssen Pharmaceutica N.V., priority 2005, dated 2010)

Target: c-fms (Homo sapiens, UniProt P07333)
Assay: c-fms autophosphorylation, fluorescence polarization competition immunoassay
Format: biochemical
Details: 10 nM c-fms, 1 mM ATP; for inhibition at 0.1 µM: test concentration 0.1 μM, read-out: c-fms Autophosphorylation Percent Inhibition, % @ 0.1 μM; for inhibition at 1 µM: test concentration 1 μM, read-out: c-fms Autophosphorylation Percent Inhibition, % @ 1 μM
Protocol: The assay buffer used was 100 mM 4-(2-hydroxyethyl)piperazine 1-ethanesulfonic acid (HEPES), pH 7.5, 1 mM 1,4-dithio-DL-threitol (DTT), 0.01% (v/v) Tween-20. Compounds were diluted in assay buffer containing 4% dimethylsulfoxide (DMSO) just prior to the assay. To each well, 5 μL of compound were added followed by the addition of 3 μL of a mix containing 33 nM c-fms and 16.7 mM MgCl2 (Sigma) in assay buffer. The kinase reaction was initiated by adding 2 μL of 5 mM ATP (Sigma) in assay buffer. The final concentrations in the assay were 10 nM c-fms, 1 mM ATP, 5 mM MgCl2, 2% DMSO. Control reactions were ran in each plate: in positive and negative control wells, assay buffer (made 4% in DMSO) was substituted for the compound; in addition, positive control wells received 1.2 μL of 50 mM ethylenediaminetetraaceticacid (EDTA).
The plates were incubated at room temperature for 45 min. At the end of the incubation, the reaction was quenched with 1.2 μL of 50 mM EDTA (EDTA was not added to the positive control wells at this point; see above). Following a 5-min incubation, each well received 10 μL of a 1:1:3 mixture of anti-phosphotyrosine antibody, 10X, PTK green tracer, 10X (vortexed), FP dilution buffer, respectively (all from PanVera, cat. # P2837). The plate was covered, incubated for 30 min at room temperature and the fluorescence polarization was read on the Analyst. The instrument settings were: 485 nm excitation filter; 530 nm emission filter; Z height: middle of well; G factor: 0.93.
The percent inhibition is shown in Table 1 at the indicated test concentration. The IC50 shown in Table 2 are averages of three independent measurements.

Sequence of c-fms (P07333 20-972): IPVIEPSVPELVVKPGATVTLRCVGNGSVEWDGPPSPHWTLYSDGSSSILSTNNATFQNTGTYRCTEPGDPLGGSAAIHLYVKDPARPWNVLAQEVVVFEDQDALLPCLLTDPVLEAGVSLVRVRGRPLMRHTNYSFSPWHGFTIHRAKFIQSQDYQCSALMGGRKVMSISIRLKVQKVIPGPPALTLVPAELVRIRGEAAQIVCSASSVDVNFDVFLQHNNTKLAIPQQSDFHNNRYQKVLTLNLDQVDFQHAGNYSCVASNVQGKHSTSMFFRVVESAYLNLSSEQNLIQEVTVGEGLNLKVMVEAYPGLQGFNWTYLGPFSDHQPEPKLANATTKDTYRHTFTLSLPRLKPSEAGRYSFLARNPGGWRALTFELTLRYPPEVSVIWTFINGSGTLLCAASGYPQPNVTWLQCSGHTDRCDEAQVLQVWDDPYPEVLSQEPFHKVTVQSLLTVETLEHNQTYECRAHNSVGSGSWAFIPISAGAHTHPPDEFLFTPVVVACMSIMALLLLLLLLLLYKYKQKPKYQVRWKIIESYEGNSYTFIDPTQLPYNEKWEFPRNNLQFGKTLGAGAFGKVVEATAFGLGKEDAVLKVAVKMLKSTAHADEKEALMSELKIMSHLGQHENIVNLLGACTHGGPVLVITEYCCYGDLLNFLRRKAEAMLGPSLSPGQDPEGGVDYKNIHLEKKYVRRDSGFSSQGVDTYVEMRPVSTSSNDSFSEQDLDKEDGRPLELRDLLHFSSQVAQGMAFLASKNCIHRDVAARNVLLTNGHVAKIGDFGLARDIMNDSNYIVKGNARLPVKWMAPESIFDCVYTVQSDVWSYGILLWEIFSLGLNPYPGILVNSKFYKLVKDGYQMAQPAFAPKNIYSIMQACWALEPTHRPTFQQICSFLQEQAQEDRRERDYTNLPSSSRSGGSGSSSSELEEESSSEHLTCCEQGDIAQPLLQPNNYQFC

| inhibition at 0.1 µM | inhibition at 1 µM | SMILES |
| --- | --- | --- |
| 31% | 69% | NC(=O)c1cn(C2CCCCC2)c2nc(NCCCn3ccnc3)ncc2c1=O [Cpd 28, 8-Cyclohexyl-2-(3-imidazol-1-yl-propylamino)-5-oxo-5,8-dihydro-pyrido[2,3-d]pyrimidine-6-carboxylic acid amide] |
| 22% | 65% | CN(C)CCCNc1ncc2c(=O)c(C(N)=O)cn(C3CCCCC3)c2n1 [Cpd 29, 8-Cyclohexyl-2-(3-dimethylamino-propylamino)-5-oxo-5,8-dihydro-pyrido[2,3-d]pyrimidine-6-carboxylic acid amide] |
| 24% | 68% | NC(=O)c1cn(C2CCCCC2)c2nc(NCCCN3CCOCC3)ncc2c1=O [Cpd 30, 8-Cyclohexyl-2-(3-morpholin-4-yl-propylamino)-5-oxo-5,8-dihydro-pyrido[2,3-d]pyrimidine-6-carboxylic acid amide] |
| 25% | 62% | COCCCNc1ncc2c(=O)c(C(N)=O)cn(C3CCCCC3)c2n1 [Cpd 31, 8-Cyclohexyl-2-(3-methoxy-propylamino)-5-oxo-5,8-dihydro-pyrido[2,3-d]pyrimidine-6-carboxylic acid amide] |
| 17% | 52% | NC(=O)c1cn(C2CCCCC2)c2nc(NCCCN3CCCC3=O)ncc2c1=O [Cpd 32, 8-Cyclohexyl-5-oxo-2-[3-(2-oxo-pyrrolidin-1-yl)-propylamino]-5,8-dihydro-pyrido[2,3-d]pyrimidine-6-carboxylic acid amide] |
| 31% | 70% | CN1CCN(CCCNc2ncc3c(=O)c(C(N)=O)cn(C4CCCCC4)c3n2)CC1 [Cpd 33, 8-Cyclohexyl-2-[3-(4-methyl-piperazin-1-yl)-propylamino]-5-oxo-5,8-dihydro-pyrido[2,3-d]pyrimidine-6-carboxylic acid amide] |
| 31% | 64% | NC(=O)c1cn(C2CCCCC2)c2nc(NCCCN3CCCC3)ncc2c1=O [Cpd 34, 8-Cyclohexyl-5-oxo-2-(3-pyrrolidin-1-yl-propylamino)-5,8-dihydro-pyrido[2,3-d]pyrimidine-6-carboxylic acid amide] |
| 29% | 67% | COCCNc1ncc2c(=O)c(C(N)=O)cn(C3CCCCC3)c2n1 [Cpd 35, 8-Cyclohexyl-2-(2-methoxy-ethylamino)-5-oxo-5,8-dihydro-pyrido[2,3-d]pyrimidine-6-carboxylic acid amide] |
| 5% | 49% | NC(=O)c1cn(C2CCCCC2)c2nc(NCCN3CCCC3)ncc2c1=O [Cpd 36, 8-Cyclohexyl-5-oxo-2-(2-pyrrolidin-1-yl-ethylamino)-5,8-dihydro-pyrido[2,3-d]pyrimidine-6-carboxylic acid amide] |
| 29% | 41% | COc1ccc(CCNc2ncc3c(=O)c(C(N)=O)cn(C4CCCCC4)c3n2)cc1 [Cpd 37, 8-Cyclohexyl-2-[2-(4-methoxy-phenyl)-ethylamino]-5-oxo-5,8-dihydro-pyrido[2,3-d]pyrimidine-6-carboxylic acid amide] |
| 19% | 56% | NC(=O)c1cn(C2CCCCC2)c2nc(NCCN3CCCCC3)ncc2c1=O [Cpd 38, 8-Cyclohexyl-5-oxo-2-(2-piperidin-1-yl-ethylamino)-5,8-dihydro-pyrido[2,3-d]pyrimidine-6-carboxylic acid amide] |
| 21% | 59% | NC(=O)c1cn(C2CCCCC2)c2nc(NCCN3CCOCC3)ncc2c1=O [Cpd 39, 8-Cyclohexyl-2-(2-morpholin-4-yl-ethylamino)-5-oxo-5,8-dihydro-pyrido[2,3-d]pyrimidine-6-carboxylic acid amide] |
| 10% | 47% | COc1cc(CNc2ncc3c(=O)c(C(N)=O)cn(C4CCCCC4)c3n2)cc(OC)c1 [Cpd 40, 8-Cyclohexyl-2-(3,5-dimethoxy-benzylamino)-5-oxo-5,8-dihydro-pyrido[2,3-d]pyrimidine-6-carboxylic acid amide] |
| 22% | 45% | CONC(=O)c1cn(C2CCCCC2)c2nc(NCCCn3ccnc3)ncc2c1=O [Cpd 41, 8-Cyclohexyl-2-(3-imidazol-1-yl-propylamino)-5-oxo-5,8-dihydro-pyrido[2,3-d]pyrimidine-6-carboxylic acid methoxy-amide] |
| 17% | 40% | CONC(=O)c1cn(C2CCCCC2)c2nc(NCCCN(C)C)ncc2c1=O [Cpd 42, 8-Cyclohexyl-2-(3-dimethylamino-propylamino)-5-oxo-5,8-dihydro-pyrido[2,3-d]pyrimidine-6-carboxylic acid methoxy-amide] |
| 32% | 60% | CONC(=O)c1cn(C2CCCCC2)c2nc(NCCCN3CCOCC3)ncc2c1=O [Cpd 43, 8-Cyclohexyl-2-(3-morpholin-4-yl-propylamino)-5-oxo-5,8-dihydro-pyrido[2,3-d]pyrimidine-6-carboxylic acid methoxy-amide] |
| 26% | 62% | COCCCNc1ncc2c(=O)c(C(=O)NOC)cn(C3CCCCC3)c2n1 [Cpd 44, 8-Cyclohexyl-2-(3-methoxy-propylamino)-5-oxo-5,8-dihydro-pyrido[2,3-d]pyrimidine-6-carboxylic acid methoxy-amide] |
| 43% | 67% | CONC(=O)c1cn(C2CCCCC2)c2nc(NCCCN3CCN(C)CC3)ncc2c1=O [Cpd 45, 8-Cyclohexyl-2-[3-(4-methyl-piperazin-1-yl)-propylamino]-5-oxo-5,8-dihydro-pyrido[2,3-d]pyrimidine-6-carboxylic acid methoxy-amide] |
| 28% | 51% | CONC(=O)c1cn(C2CCCCC2)c2nc(NCCCN3CCCC3)ncc2c1=O [Cpd 46, 8-Cyclohexyl-5-oxo-2-(3-pyrrolidin-1-yl-propylamino)-5,8-dihydro-pyrido[2,3-d]pyrimidine-6-carboxylic acid methoxy-amide] |
| 31% | 57% | COCCNc1ncc2c(=O)c(C(=O)NOC)cn(C3CCCCC3)c2n1 [Cpd 47, 8-Cyclohexyl-2-(2-methoxy-ethylamino)-5-oxo-5,8-dihydro-pyrido[2,3-d]pyrimidine-6-carboxylic acid methoxy-amide] |
| 0% | 18% | CONC(=O)c1cn(C2CCCCC2)c2nc(NCCN3CCCC3)ncc2c1=O [Cpd 48, 8-Cyclohexyl-5-oxo-2-(2-pyrrolidin-1-yl-ethylamino)-5,8-dihydro-pyrido[2,3-d]pyrimidine-6-carboxylic acid methoxy-amide] |
| 38% | 68% | CONC(=O)c1cn(C2CCCCC2)c2nc(NCCc3ccc(OC)cc3)ncc2c1=O [Cpd 49, 8-Cyclohexyl-2-[2-(4-methoxy-phenyl)-ethylamino]-5-oxo-5,8-dihydro-pyrido[2,3-d]pyrimidine-6-carboxylic acid methoxy-amide] |
| 3% | 20% | CONC(=O)c1cn(C2CCCCC2)c2nc(NCCN3CCCCC3)ncc2c1=O [Cpd 50, 8-Cyclohexyl-5-oxo-2-(2-piperidin-1-yl-ethylamino)-5,8-dihydro-pyrido[2,3-d]pyrimidine-6-carboxylic acid methoxy-amide] |
| 17% | 44% | CONC(=O)c1cn(C2CCCCC2)c2nc(NCCN3CCOCC3)ncc2c1=O [Cpd 51, 8-Cyclohexyl-2-(2-morpholin-4-yl-ethylamino)-5-oxo-5,8-dihydro-pyrido[2,3-d]pyrimidine-6-carboxylic acid methoxy-amide] |
| 23% | 53% | CONC(=O)c1cn(C2CCCCC2)c2nc(NCc3cc(OC)cc(OC)c3)ncc2c1=O [Cpd 52, 8-Cyclohexyl-2-(3,5-dimethoxy-benzylamino)-5-oxo-5,8-dihydro-pyrido[2,3-d]pyrimidine-6-carboxylic acid methoxy-amide] |
| 10% | 21% | CNC(=O)c1cn(C2CCCCC2)c2nc(NCCCn3ccnc3)ncc2c1=O [Cpd 53, 8-Cyclohexyl-2-(3-imidazol-1-yl-propylamino)-5-oxo-5,8-dihydro-pyrido[2,3-d]pyrimidine-6-carboxylic acid methylamide] |
| 6% | 26% | CNC(=O)c1cn(C2CCCCC2)c2nc(NCCCN(C)C)ncc2c1=O [Cpd 54, 8-Cyclohexyl-2-(3-dimethylamino-propylamino)-5-oxo-5,8-dihydro-pyrido[2,3-d]pyrimidine-6-carboxylic acid methylamide] |
